Test results published in patent publication US11542240B2, “STK19 inhibitors for treatment of cancer” (TRUSTEES OF BOSTON UNIVERSITY, priority 2018, dated 2023).

Tests used:
Experiment in all cases: biochemical
Format in all cases: binding
[1] = target: panel of 468 diverse kinases (Homo sapiens, UniProt P32298); conditions: GRK4; 1000 nM; read-out: Percent Control
[2] = target: panel of 468 diverse kinases (Homo sapiens, UniProt P42336, C420R); conditions: PIK3CA(C420R); 1000 nM; read-out: Percent Control
[3] = target: panel of 468 diverse kinases (Homo sapiens, UniProt Q02779); conditions: MLK2; 1000 nM; read-out: Percent Control
[4] = target: panel of 468 diverse kinases (Homo sapiens, UniProt Q9Y6R4); conditions: MAP3K4; 1000 nM; read-out: Percent Control
[5] = target: panel of 468 diverse kinases (Homo sapiens, UniProt Q8N752); conditions: CSNKIV1L; 1000 nM; read-out: Percent Control
[6] = target: panel of 468 diverse kinases (Homo sapiens, UniProt P49336); conditions: CDK8; 1000 nM; read-out: Percent Control
[7] = target: panel of 468 diverse kinases (Homo sapiens, UniProt O43283); conditions: LZK; 1000 nM; read-out: Percent Control
[8] = target: panel of 468 diverse kinases (Homo sapiens, UniProt P29376); conditions: LTK; 1000 nM; read-out: Percent Control
[9] = target: panel of 468 diverse kinases (Homo sapiens, UniProt Q8IVH8); conditions: MAP4K3; 1000 nM; read-out: Percent Control
[10] = target: panel of 468 diverse kinases (Homo sapiens, UniProt P07949, V804L); conditions: RET(V804L); 1000 nM; read-out: Percent Control
[11] = target: panel of 468 diverse kinases (Homo sapiens, UniProt P00533, L861Q); conditions: EGFR(L861Q); 1000 nM; read-out: Percent Control
[12] = target: panel of 468 diverse kinases (Homo sapiens, UniProt Q13131); conditions: AMPK-alpha1; 1000 nM; read-out: Percent Control
[13] = target: panel of 468 diverse kinases (Homo sapiens, UniProt P51956); conditions: NEK3; 1000 nM; read-out: Percent Control
[14] = target: panel of 468 diverse kinases (Homo sapiens, UniProt P31749); conditions: AKT1; 1000 nM; read-out: Percent Control
[15] = target: panel of 468 diverse kinases (Homo sapiens, UniProt Q16566); conditions: CAMK4; 1000 nM; read-out: Percent Control
[16] = target: panel of 468 diverse kinases (Homo sapiens, UniProt Q16539); conditions: p38-alpha; 1000 nM; read-out: Percent Control
[17] = target: panel of 468 diverse kinases (Homo sapiens, UniProt Q9HBY8); conditions: SGK2; 1000 nM; read-out: Percent Control
[18] = target: panel of 468 diverse kinases (Homo sapiens, UniProt Q9BXA7); conditions: TSSK1B; 1000 nM; read-out: Percent Control
[19] = target: panel of 468 diverse kinases (Homo sapiens, UniProt Q9BWU1); conditions: CDK11; 1000 nM; read-out: Percent Control
[20] = target: panel of 468 diverse kinases (Homo sapiens, UniProt P36894); conditions: BMPRIV; 1000 nM; read-out: Percent Control
[21] = target: panel of 468 diverse kinases (Homo sapiens, UniProt Q96J92); conditions: WNK4; 1000 nM; read-out: Percent Control
[22] = target: panel of 468 diverse kinases (Homo sapiens, UniProt P42336); conditions: PIK3CA; 1000 nM; read-out: Percent Control
[23] = target: panel of 468 diverse kinases (Homo sapiens, UniProt Q00535); conditions: CDK5; 1000 nM; read-out: Percent Control
[24] = target: panel of 468 diverse kinases (Homo sapiens, UniProt Q96PN8); conditions: TS SK3; 1000 nM; read-out: Percent Control
[25] = target: panel of 468 diverse kinases (Homo sapiens, UniProt O43318); conditions: TAK1; 1000 nM; read-out: Percent Control
[26] = target: panel of 468 diverse kinases (Homo sapiens, UniProt Q04759); conditions: PRKCQ; 1000 nM; read-out: Percent Control
[27] = target: panel of 468 diverse kinases (Homo sapiens, UniProt Q56UN5); conditions: YSK4; 1000 nM; read-out: Percent Control
[28] = target: panel of 468 diverse kinases (Homo sapiens, UniProt P51617); conditions: IRAK1; 1000 nM; read-out: Percent Control
[29] = target: panel of 468 diverse kinases (Homo sapiens, UniProt P51955); conditions: NEK2; 1000 nM; read-out: Percent Control
[30] = target: panel of 468 diverse kinases (Homo sapiens, UniProt Q9UM73, L1196M); conditions: ALK(L1196M); 1000 nM; read-out: Percent Control
[31] = target: panel of 468 diverse kinases (Homo sapiens, UniProt O75116); conditions: ROCK2; 1000 nM; read-out: Percent Control

Sequence of panel of 468 diverse kinases (Homo sapiens, UniProt Q9UM73, L1196M) (Q9UM73 19-1620 L1196M limits assumed): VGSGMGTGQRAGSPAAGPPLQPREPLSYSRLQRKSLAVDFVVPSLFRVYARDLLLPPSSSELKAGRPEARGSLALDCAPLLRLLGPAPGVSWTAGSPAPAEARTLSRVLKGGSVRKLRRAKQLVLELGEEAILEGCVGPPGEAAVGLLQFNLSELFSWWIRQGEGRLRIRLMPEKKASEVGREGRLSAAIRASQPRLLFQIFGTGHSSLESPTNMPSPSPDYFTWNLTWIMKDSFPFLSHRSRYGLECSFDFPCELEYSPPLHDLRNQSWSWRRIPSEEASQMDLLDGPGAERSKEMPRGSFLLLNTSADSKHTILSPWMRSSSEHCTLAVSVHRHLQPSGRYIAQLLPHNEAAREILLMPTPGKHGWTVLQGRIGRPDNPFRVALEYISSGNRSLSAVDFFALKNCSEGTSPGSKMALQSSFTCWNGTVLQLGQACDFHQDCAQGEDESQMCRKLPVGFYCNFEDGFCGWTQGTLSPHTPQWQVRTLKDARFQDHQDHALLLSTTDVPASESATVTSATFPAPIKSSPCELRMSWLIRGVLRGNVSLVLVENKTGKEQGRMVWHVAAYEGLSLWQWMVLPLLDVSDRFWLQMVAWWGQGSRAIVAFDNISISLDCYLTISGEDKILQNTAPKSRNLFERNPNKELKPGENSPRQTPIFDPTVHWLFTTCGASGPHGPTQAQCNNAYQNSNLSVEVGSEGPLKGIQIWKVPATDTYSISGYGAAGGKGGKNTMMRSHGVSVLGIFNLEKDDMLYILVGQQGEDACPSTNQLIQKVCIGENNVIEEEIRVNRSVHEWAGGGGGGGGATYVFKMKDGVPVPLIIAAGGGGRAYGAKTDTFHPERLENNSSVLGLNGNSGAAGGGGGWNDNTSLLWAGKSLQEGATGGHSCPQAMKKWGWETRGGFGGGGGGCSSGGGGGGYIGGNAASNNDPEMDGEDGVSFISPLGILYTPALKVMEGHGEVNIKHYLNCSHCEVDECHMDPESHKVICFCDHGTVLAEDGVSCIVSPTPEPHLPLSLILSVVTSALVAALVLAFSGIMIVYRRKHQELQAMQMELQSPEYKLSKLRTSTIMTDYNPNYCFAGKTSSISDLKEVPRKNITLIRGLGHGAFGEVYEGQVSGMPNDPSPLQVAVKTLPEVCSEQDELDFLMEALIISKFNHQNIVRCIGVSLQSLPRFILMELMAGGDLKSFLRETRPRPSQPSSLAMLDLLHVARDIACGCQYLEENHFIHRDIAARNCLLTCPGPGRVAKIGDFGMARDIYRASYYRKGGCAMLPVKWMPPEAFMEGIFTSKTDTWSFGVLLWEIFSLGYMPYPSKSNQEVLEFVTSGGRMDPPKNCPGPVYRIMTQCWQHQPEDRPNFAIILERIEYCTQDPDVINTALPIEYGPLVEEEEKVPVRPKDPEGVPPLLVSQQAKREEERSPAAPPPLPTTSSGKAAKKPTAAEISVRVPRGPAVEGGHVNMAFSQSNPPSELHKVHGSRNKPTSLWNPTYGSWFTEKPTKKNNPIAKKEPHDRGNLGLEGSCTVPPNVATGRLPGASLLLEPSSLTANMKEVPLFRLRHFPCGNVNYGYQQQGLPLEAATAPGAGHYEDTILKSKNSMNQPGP
Sequence of panel of 468 diverse kinases (Homo sapiens, UniProt P00533, L861Q) (P00533 25-1210 L861Q limits assumed): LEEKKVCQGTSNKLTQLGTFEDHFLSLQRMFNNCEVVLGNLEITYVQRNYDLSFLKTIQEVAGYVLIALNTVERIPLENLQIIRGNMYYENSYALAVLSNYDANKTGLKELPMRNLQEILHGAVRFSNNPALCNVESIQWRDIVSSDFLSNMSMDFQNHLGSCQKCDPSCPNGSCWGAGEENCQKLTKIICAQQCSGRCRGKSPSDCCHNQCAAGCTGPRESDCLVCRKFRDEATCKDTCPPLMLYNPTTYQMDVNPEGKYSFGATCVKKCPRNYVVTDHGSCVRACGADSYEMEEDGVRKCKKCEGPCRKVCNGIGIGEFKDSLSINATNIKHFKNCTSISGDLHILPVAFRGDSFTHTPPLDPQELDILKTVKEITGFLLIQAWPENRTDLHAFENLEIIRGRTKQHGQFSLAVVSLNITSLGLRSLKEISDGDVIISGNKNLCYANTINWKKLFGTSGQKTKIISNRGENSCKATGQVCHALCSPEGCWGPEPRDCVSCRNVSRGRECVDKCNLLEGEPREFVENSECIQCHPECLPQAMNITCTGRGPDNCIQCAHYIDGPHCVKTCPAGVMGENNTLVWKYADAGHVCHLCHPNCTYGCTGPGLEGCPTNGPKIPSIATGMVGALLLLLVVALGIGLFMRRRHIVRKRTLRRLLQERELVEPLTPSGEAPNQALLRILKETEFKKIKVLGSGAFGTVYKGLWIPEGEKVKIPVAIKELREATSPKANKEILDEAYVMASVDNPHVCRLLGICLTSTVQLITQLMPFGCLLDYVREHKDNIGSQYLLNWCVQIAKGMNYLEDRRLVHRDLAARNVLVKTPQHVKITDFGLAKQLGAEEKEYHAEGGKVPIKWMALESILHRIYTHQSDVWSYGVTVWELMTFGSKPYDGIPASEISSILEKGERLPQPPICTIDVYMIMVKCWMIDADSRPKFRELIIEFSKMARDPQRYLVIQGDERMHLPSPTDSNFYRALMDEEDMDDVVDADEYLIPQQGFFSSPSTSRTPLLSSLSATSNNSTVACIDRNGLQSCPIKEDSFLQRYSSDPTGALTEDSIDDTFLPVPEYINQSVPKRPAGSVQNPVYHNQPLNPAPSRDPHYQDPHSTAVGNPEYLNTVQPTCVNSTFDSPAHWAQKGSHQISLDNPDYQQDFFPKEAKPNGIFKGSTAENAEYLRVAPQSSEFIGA
Sequence of panel of 468 diverse kinases (Homo sapiens, UniProt P29376) (P29376 17-864 limits assumed): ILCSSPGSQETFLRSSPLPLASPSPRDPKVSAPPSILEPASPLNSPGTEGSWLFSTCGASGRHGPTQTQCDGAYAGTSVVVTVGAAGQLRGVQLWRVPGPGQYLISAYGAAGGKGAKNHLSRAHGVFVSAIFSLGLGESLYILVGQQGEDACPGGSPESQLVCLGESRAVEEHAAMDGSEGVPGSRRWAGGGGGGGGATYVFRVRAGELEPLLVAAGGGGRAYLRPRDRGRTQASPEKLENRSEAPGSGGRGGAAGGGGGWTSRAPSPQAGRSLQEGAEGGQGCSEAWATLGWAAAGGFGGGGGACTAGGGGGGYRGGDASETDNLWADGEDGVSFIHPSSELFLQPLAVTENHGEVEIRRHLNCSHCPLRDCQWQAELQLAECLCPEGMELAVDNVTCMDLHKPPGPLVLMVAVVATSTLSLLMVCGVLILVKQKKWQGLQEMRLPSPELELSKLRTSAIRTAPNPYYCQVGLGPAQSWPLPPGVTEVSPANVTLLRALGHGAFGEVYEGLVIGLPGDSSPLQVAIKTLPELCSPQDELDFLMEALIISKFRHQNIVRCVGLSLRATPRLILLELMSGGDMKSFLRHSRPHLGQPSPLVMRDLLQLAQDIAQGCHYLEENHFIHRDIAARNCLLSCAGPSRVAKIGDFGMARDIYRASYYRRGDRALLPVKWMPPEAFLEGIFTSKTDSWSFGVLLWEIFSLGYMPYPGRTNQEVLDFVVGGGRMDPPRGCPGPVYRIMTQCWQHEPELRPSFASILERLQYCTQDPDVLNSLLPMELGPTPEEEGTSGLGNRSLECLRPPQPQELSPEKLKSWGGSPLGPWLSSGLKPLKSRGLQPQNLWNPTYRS
Sequence of panel of 468 diverse kinases (Homo sapiens, UniProt P36894) (P36894 24-532 limits assumed): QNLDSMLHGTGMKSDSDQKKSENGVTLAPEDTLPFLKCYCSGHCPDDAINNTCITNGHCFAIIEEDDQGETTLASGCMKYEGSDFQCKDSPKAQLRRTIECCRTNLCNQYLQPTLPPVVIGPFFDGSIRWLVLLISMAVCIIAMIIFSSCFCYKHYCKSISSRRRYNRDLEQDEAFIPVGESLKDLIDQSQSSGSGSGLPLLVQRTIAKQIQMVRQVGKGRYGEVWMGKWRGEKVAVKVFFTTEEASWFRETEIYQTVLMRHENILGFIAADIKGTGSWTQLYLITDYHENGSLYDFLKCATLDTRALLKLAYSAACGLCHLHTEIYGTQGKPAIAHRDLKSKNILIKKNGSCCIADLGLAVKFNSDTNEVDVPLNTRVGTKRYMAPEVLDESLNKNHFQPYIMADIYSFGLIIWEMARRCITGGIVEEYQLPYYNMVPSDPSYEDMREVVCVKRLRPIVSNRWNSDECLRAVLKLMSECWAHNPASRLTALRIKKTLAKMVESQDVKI
Sequence of panel of 468 diverse kinases (Homo sapiens, UniProt Q16539) (Q16539 2-360 limits assumed): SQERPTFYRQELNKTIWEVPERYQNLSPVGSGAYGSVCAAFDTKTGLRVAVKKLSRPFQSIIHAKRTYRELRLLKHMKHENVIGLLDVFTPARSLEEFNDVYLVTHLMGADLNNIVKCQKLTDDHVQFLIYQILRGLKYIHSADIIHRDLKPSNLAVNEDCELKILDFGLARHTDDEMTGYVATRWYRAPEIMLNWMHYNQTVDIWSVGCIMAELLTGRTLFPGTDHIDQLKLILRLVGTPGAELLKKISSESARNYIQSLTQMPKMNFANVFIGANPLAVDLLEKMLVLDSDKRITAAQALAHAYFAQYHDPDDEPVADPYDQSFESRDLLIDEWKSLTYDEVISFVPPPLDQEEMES

COc1cc2nc(NC3CC3)nc(NC3CCN(C(C)C)CC3)c2cc1OC [Formula IV] showed a remaining activity at 1 µM [1] of 100%, a remaining activity at 1 µM [2] of 91% and a remaining activity at 1 µM [3] of 95%. It also gave a remaining activity at 1 µM [4] of 100%, a remaining activity at 1 µM [5] of 99% and a remaining activity at 1 µM [6] of 96%. For the same molecule, the remaining activity at 1 µM [7] was 45%, the remaining activity at 1 µM [8] was 82% and the remaining activity at 1 µM [9] was 91%. The remaining activity at 1 µM [10] was 75%, the remaining activity at 1 µM [11] was 75% and the remaining activity at 1 µM [12] was 92%. The remaining activity at 1 µM [13] was 50%, the remaining activity at 1 µM [14] was 95% and the remaining activity at 1 µM [15] was 98%. For the same molecule, the remaining activity at 1 µM [16] was 100%, the remaining activity at 1 µM [17] was 64% and the remaining activity at 1 µM [18] was 85%. For the same molecule, the remaining activity at 1 µM [19] was 82%, the remaining activity at 1 µM [20] was 100% and the remaining activity at 1 µM [21] was 70%. For the same molecule, the remaining activity at 1 µM [22] was 97%, the remaining activity at 1 µM [23] was 93% and the remaining activity at 1 µM [24] was 96%. The remaining activity at 1 µM [25] was 84%, the remaining activity at 1 µM [26] was 86% and the remaining activity at 1 µM [27] was 78%. For the same molecule, the remaining activity at 1 µM [28] was 80%, the remaining activity at 1 µM [29] was 100% and the remaining activity at 1 µM [30] was 78%. It also gave a remaining activity at 1 µM [31] of 49%.
